Where “and” joins values, the source holds several entries; their conditions need not be identical. Equal values may be shown once.
Assays:
Experiment in all cases: biochemical
Assay type in all cases: binding
SfurOBP1 = SfurOBP1 (Sogatella furcifera, UniProt V5T8N5); conditions: for Fluorescence competitive binding assay, fluorescence intensity: OBP1, three replicate columns
In short: (§1)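 Fluorescence competitive binding with 1-NPN as reporter: 2.0 µM protein and 2.0 µM 1-NPN in 50 mM Tris-HCl pH 7.4, odorant added at 2–20 µM final. Excitation 337 nm, emission 390–490 nm read 2 min after addition, triplicates. Ki = IC50/(1 + [1-NPN]/K1-NPN).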

SfurOBP11 = SfurOBP11 (Sogatella furcifera, UniProt V5T6E3)
In short: as §1

SfurOBP2 = SfurOBP2 (Sogatella furcifera, UniProt V5T759)
In short: as §1

SfurOBP3 = SfurOBP3 (Sogatella furcifera, UniProt V5T818); conditions: for Fluorescence competitive binding assay, fluorescence intensity: OBP3, three replicate columns
In short: as §1

Chain of SfurOBP1 (V5T8N5 entry or part of it): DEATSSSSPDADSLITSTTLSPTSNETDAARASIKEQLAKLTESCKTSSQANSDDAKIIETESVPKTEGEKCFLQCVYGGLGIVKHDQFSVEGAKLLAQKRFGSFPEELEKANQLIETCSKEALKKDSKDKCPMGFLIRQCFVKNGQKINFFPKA
Chain of SfurOBP2 (V5T759 entry or part of it): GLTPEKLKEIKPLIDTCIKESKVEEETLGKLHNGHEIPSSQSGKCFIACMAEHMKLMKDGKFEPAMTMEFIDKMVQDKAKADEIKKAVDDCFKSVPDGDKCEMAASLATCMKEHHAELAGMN
Chain of SfurOBP3 (V5T818 entry or part of it): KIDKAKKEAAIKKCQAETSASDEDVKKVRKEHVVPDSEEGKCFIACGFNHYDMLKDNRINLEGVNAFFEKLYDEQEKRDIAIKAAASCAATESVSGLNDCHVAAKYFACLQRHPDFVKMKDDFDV
Chain of SfurOBP11 (V5T6E3 entry or part of it): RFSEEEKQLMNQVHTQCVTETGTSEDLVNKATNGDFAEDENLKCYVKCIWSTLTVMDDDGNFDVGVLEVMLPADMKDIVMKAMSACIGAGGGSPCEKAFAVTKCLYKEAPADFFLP

CCCCCCCCCCCCCCCC [n-hexadecane]
Fluorescence competitive binding assay, fluorescence intensity (SfurOBP1; ligand concentration 2 (μM)): 5137 and 5021 and 5229 | Fluorescence competitive binding assay, fluorescence intensity (SfurOBP1; ligand concentration 4 (μM)): 5910 and 6306 and 5547 | Fluorescence competitive binding assay, fluorescence intensity (SfurOBP1; ligand concentration 6 (μM)): 6300 and 6430 and 6367 | Fluorescence competitive binding assay, fluorescence intensity (SfurOBP1; ligand concentration 8 (μM)): 6419 and 6500 and 6466 | Fluorescence competitive binding assay, fluorescence intensity (SfurOBP1; ligand concentration 10 (μM)): 6532 and 6517 and 6502 | Fluorescence competitive binding assay, fluorescence intensity (SfurOBP1; ligand concentration 12 (μM)): 6620 and 6292 and 6471 | Fluorescence competitive binding assay, fluorescence intensity (SfurOBP1; ligand concentration 14 (μM)): 6713 and 6503 and 6353 | Fluorescence competitive binding assay, fluorescence intensity (SfurOBP1; ligand concentration 16 (μM)): 6541 and 6507 and 6533 | Fluorescence competitive binding assay, fluorescence intensity (SfurOBP1; ligand concentration 18 (μM)): 7558 and 7106 and 6654 | Fluorescence competitive binding assay, fluorescence intensity (SfurOBP1; ligand concentration 20 (μM)): 6949 and 7724 and 7337 | IC50 (SfurOBP1; SfurOBP1, protein and 1-NPN both 2.0 µM, competitor 2-20 µM, read-out: IC50): > 20 µM | IC50 (SfurOBP11; SfurOBP11, protein and 1-NPN both 2.0 µM, competitor 2-20 µM, read-out: IC50): > 20 µM | Fluorescence intensity, fluorescence competitive binding assay, OBP11 (SfurOBP11; ligand concentration 2, replicate 1): 21809 | Fluorescence intensity, fluorescence competitive binding assay, OBP11 (SfurOBP11; ligand concentration 2, replicate 2): 24436 | Fluorescence intensity, fluorescence competitive binding assay, OBP11 (SfurOBP11; ligand concentration 2, replicate 3): 21028 | Fluorescence intensity, fluorescence competitive binding assay, OBP11 (SfurOBP11; ligand concentration 4, replicate 1): 21555 | Fluorescence intensity, fluorescence competitive binding assay, OBP11 (SfurOBP11; ligand concentration 4, replicate 2): 21532 | Fluorescence intensity, fluorescence competitive binding assay, OBP11 (SfurOBP11; ligand concentration 4, replicate 3): 20733 | Fluorescence intensity, fluorescence competitive binding assay, OBP11 (SfurOBP11; ligand concentration 6, replicate 1): 20973 | Fluorescence intensity, fluorescence competitive binding assay, OBP11 (SfurOBP11; ligand concentration 6, replicate 2): 20501 | Fluorescence intensity, fluorescence competitive binding assay, OBP11 (SfurOBP11; ligand concentration 6, replicate 3): 20737 | Fluorescence intensity, fluorescence competitive binding assay, OBP11 (SfurOBP11; ligand concentration 8, replicate 1): 20324 | Fluorescence intensity, fluorescence competitive binding assay, OBP11 (SfurOBP11; ligand concentration 8, replicate 2): 20139 | Fluorescence intensity, fluorescence competitive binding assay, OBP11 (SfurOBP11; ligand concentration 8, replicate 3): 20508 | Fluorescence intensity, fluorescence competitive binding assay, OBP11 (SfurOBP11; ligand concentration 10, replicate 1): 20121 | Fluorescence intensity, fluorescence competitive binding assay, OBP11 (SfurOBP11; ligand concentration 10, replicate 2): 20422 | Fluorescence intensity, fluorescence competitive binding assay, OBP11 (SfurOBP11; ligand concentration 10, replicate 3): 20353 | Fluorescence intensity, fluorescence competitive binding assay, OBP11 (SfurOBP11; ligand concentration 12, replicate 1): 19850 | Fluorescence intensity, fluorescence competitive binding assay, OBP11 (SfurOBP11; ligand concentration 12, replicate 2): 19980 | Fluorescence intensity, fluorescence competitive binding assay, OBP11 (SfurOBP11; ligand concentration 12, replicate 3): 19737 | Fluorescence intensity, fluorescence competitive binding assay, OBP11 (SfurOBP11; ligand concentration 14, replicate 1): 21701 | Fluorescence intensity, fluorescence competitive binding assay, OBP11 (SfurOBP11; ligand concentration 14, replicate 2): 22333 | Fluorescence intensity, fluorescence competitive binding assay, OBP11 (SfurOBP11; ligand concentration 14, replicate 3): 21069 | Fluorescence intensity, fluorescence competitive binding assay, OBP11 (SfurOBP11; ligand concentration 16, replicate 1): 21665 | Fluorescence intensity, fluorescence competitive binding assay, OBP11 (SfurOBP11; ligand concentration 16, replicate 2): 22169 | Fluorescence intensity, fluorescence competitive binding assay, OBP11 (SfurOBP11; ligand concentration 16, replicate 3): 22138 | Fluorescence intensity, fluorescence competitive binding assay, OBP11 (SfurOBP11; ligand concentration 18, replicate 1): 22525 | Fluorescence intensity, fluorescence competitive binding assay, OBP11 (SfurOBP11; ligand concentration 18, replicate 2): 23830 | Fluorescence intensity, fluorescence competitive binding assay, OBP11 (SfurOBP11; ligand concentration 18, replicate 3): 23178 | Fluorescence intensity, fluorescence competitive binding assay, OBP11 (SfurOBP11; ligand concentration 20, replicate 1): 23218 | Fluorescence intensity, fluorescence competitive binding assay, OBP11 (SfurOBP11; ligand concentration 20, replicate 2): 23600 | Fluorescence intensity, fluorescence competitive binding assay, OBP11 (SfurOBP11; ligand concentration 20, replicate 3): 23432 | IC50 (SfurOBP2; SfurOBP2, protein and 1-NPN both 2.0 µM, competitor 2-20 µM, read-out: IC50): 17.4 µM | Fluorescence competitive binding assay, OBP2 (raw fluorescence reading) (SfurOBP2; ligand concentration 2 (unit not given), replicate column 1 of 3): 13495 | Fluorescence competitive binding assay, OBP2 (raw fluorescence reading) (SfurOBP2; ligand concentration 2 (unit not given), replicate column 2 of 3): 16165 | Fluorescence competitive binding assay, OBP2 (raw fluorescence reading) (SfurOBP2; ligand concentration 2 (unit not given), replicate column 3 of 3): 17504 | Fluorescence competitive binding assay, OBP2 (raw fluorescence reading) (SfurOBP2; ligand concentration 4 (unit not given), replicate column 1 of 3): 14292 | Fluorescence competitive binding assay, OBP2 (raw fluorescence reading) (SfurOBP2; ligand concentration 4 (unit not given), replicate column 2 of 3): 14770 | Fluorescence competitive binding assay, OBP2 (raw fluorescence reading) (SfurOBP2; ligand concentration 4 (unit not given), replicate column 3 of 3): 18258 | Fluorescence competitive binding assay, OBP2 (raw fluorescence reading) (SfurOBP2; ligand concentration 6 (unit not given), replicate column 1 of 3): 13188 | Fluorescence competitive binding assay, OBP2 (raw fluorescence reading) (SfurOBP2; ligand concentration 6 (unit not given), replicate column 2 of 3): 14373 | Fluorescence competitive binding assay, OBP2 (raw fluorescence reading) (SfurOBP2; ligand concentration 6 (unit not given), replicate column 3 of 3): 14976 | Fluorescence competitive binding assay, OBP2 (raw fluorescence reading) (SfurOBP2; ligand concentration 8 (unit not given), replicate column 1 of 3): 12682 | Fluorescence competitive binding assay, OBP2 (raw fluorescence reading) (SfurOBP2; ligand concentration 8 (unit not given), replicate column 2 of 3): 13401 | Fluorescence competitive binding assay, OBP2 (raw fluorescence reading) (SfurOBP2; ligand concentration 8 (unit not given), replicate column 3 of 3): 14572 | Fluorescence competitive binding assay, OBP2 (raw fluorescence reading) (SfurOBP2; ligand concentration 10 (unit not given), replicate column 1 of 3): 12390 | Fluorescence competitive binding assay, OBP2 (raw fluorescence reading) (SfurOBP2; ligand concentration 10 (unit not given), replicate column 2 of 3): 12956 | Fluorescence competitive binding assay, OBP2 (raw fluorescence reading) (SfurOBP2; ligand concentration 10 (unit not given), replicate column 3 of 3): 13308 | Fluorescence competitive binding assay, OBP2 (raw fluorescence reading) (SfurOBP2; ligand concentration 12 (unit not given), replicate column 1 of 3): 11320 | Fluorescence competitive binding assay, OBP2 (raw fluorescence reading) (SfurOBP2; ligand concentration 12 (unit not given), replicate column 2 of 3): 12682 | Fluorescence competitive binding assay, OBP2 (raw fluorescence reading) (SfurOBP2; ligand concentration 12 (unit not given), replicate column 3 of 3): 13112 | Fluorescence competitive binding assay, OBP2 (raw fluorescence reading) (SfurOBP2; ligand concentration 14 (unit not given), replicate column 1 of 3): 11586 | Fluorescence competitive binding assay, OBP2 (raw fluorescence reading) (SfurOBP2; ligand concentration 14 (unit not given), replicate column 2 of 3): 11754 | Fluorescence competitive binding assay, OBP2 (raw fluorescence reading) (SfurOBP2; ligand concentration 14 (unit not given), replicate column 3 of 3): 12906 | Fluorescence competitive binding assay, OBP2 (raw fluorescence reading) (SfurOBP2; ligand concentration 16 (unit not given), replicate column 1 of 3): 10605 | Fluorescence competitive binding assay, OBP2 (raw fluorescence reading) (SfurOBP2; ligand concentration 16 (unit not given), replicate column 2 of 3): 10448 | Fluorescence competitive binding assay, OBP2 (raw fluorescence reading) (SfurOBP2; ligand concentration 16 (unit not given), replicate column 3 of 3): 11282 | Fluorescence competitive binding assay, OBP2 (raw fluorescence reading) (SfurOBP2; ligand concentration 18 (unit not given), replicate column 1 of 3): 14498 | Fluorescence competitive binding assay, OBP2 (raw fluorescence reading) (SfurOBP2; ligand concentration 18 (unit not given), replicate column 2 of 3): 14899 | Fluorescence competitive binding assay, OBP2 (raw fluorescence reading) (SfurOBP2; ligand concentration 18 (unit not given), replicate column 3 of 3): 13250 | Fluorescence competitive binding assay, OBP2 (raw fluorescence reading) (SfurOBP2; ligand concentration 20 (unit not given), replicate column 1 of 3): 13545 | Fluorescence competitive binding assay, OBP2 (raw fluorescence reading) (SfurOBP2; ligand concentration 20 (unit not given), replicate column 2 of 3): 12591 | Fluorescence competitive binding assay, OBP2 (raw fluorescence reading) (SfurOBP2; ligand concentration 20 (unit not given), replicate column 3 of 3): 11415 | Fluorescence competitive binding assay, fluorescence intensity (SfurOBP3; ligand concentration 2): 69046 and 56769 and 63691 | Fluorescence competitive binding assay, fluorescence intensity (SfurOBP3; ligand concentration 4): 61024 and 72407 and 63576 | Fluorescence competitive binding assay, fluorescence intensity (SfurOBP3; ligand concentration 6): 62953 and 54664 and 55739 | Fluorescence competitive binding assay, fluorescence intensity (SfurOBP3; ligand concentration 8): 48630 and 46017 and 57385 | Fluorescence competitive binding assay, fluorescence intensity (SfurOBP3; ligand concentration 10): 48455 and 41384 and 49192 | Fluorescence competitive binding assay, fluorescence intensity (SfurOBP3; ligand concentration 12): 44417 and 51591 and 51023 | Fluorescence competitive binding assay, fluorescence intensity (SfurOBP3; ligand concentration 14): 42917 and 40156 and 40042 | Fluorescence competitive binding assay, fluorescence intensity (SfurOBP3; ligand concentration 16): 37264 and 50015 and 45340 | Fluorescence competitive binding assay, fluorescence intensity (SfurOBP3; ligand concentration 18): 66503 and 59244 and 47400 | Fluorescence competitive binding assay, fluorescence intensity (SfurOBP3; ligand concentration 20): 55843 and 55740 and 43544 | IC50 (SfurOBP3; SfurOBP3, protein and 1-NPN both 2.0 µM, competitor 2-20 µM, read-out: IC50): > 20 µM

— publication PMC6409085, “Three odorant-binding proteins are involved in the behavioral response of Sogatella furcifera to rice plant volatiles” (PeerJ, 2019)
